Measurements taken from patent US8481495B2 (TetraLogic Pharmaceuticals Corporation, priority 2009, dated 2013).

Experiments:
XIAP BIR-3 = target: T1, XIAP BIR-3 (Homo sapiens, UniProt P98170); assay: Fluorescence polarization binding to XIAP BIR-3 with labeled peptide AbuRPF-K(5-Fam)-NH2; settings: XIAP BIR-3, 40 nM BIR3, 5 nM labeled peptide, 15 min RT, pH 7.5; read-out: XIAP, nM (binding affinity KD, as range)
T1 construct: 40 nM of the respective IAP BIR3
Summary of the method: (§1)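 Competitive FP with 5 nM 5-Fam-labelled Smac-mimetic peptide and 40 nM IAP BIR3, 15 min at RT in 0.1 M potassium phosphate pH 7.5 with bovine γ-globulin. Polarization (mP) read at 485/520 nm; KD reported as ranges A–D (A <0.1 μM to D >10 μM).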

cIAP-1 BIR-3 = target: T2, cIAP-1 BIR-3 (Homo sapiens, UniProt Q13490); assay: Fluorescence polarization binding to cIAP-1 BIR-3 with labeled peptide AbuRPF-K(5-Fam)-NH2; settings: cIAP-1 BIR-3, 40 nM BIR3, 5 nM labeled peptide, 15 min RT, pH 7.5; read-out: cIAP1, nM (binding affinity KD, as range)
T2 construct: 40 nM of the respective IAP BIR3
Summary of the method: as §1

SK-OV-3 cells = assay: MTT cell growth inhibition assay in ovarian cancer cell line SK-OV-3; format: cell-based; settings: Homo sapiens, 72 hrs incubation, read-out: SKOV3, nM (CC50, concentration giving 50% cell survival, as range)
Summary of the method: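 SK-OV-3 cells (5,000 per well, McCoy's medium with 10% FBS) exposed to compounds at 0.003-10 μM for 72 h at 37°C, followed by MTT for 3 h, DMSO solubilisation and OD at 535 nm. CC50 is the concentration giving 50% survival relative to control wells, reported in ranges (A <0.1 μM to D >10 μM).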

T2 sequence (Q13490 253-363 limits assumed): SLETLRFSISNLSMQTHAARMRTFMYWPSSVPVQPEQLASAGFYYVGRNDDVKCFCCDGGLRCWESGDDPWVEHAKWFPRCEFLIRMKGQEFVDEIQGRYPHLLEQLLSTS
T1 sequence (P98170 241-356 limits assumed): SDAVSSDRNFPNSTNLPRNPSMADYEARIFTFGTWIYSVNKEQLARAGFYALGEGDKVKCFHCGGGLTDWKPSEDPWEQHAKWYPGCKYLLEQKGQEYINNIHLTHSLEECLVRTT

Row | SMILES | Kd (XIAP BIR-3) | Kd (cIAP-1 BIR-3) | CC50 (SK-OV-3 cells)
1 | CN[C@@H](C)C(=O)N[C@H](C(=O)N1CC[C@@H]2[C@H]1[C@@H](C(=O)N[C@H]1CCCc3ccccc31)CN2S(C)(=O)=O)C1CCCCC1 [Example 4, 4-[2-Cyclohexyl-2-(2-methylamino-propionylamino)-acetyl]-1-methanesulfonyl-octahydro-pyrrolo[3,2-b]pyrrole-3-carboxylic acid (1,2,3,4-tetrahydro-naphthalen-1-yl)-amide] | < 100 nM | < 100 nM | 100 to 1000 nM
2 | CN[C@@H](C)C(=O)N[C@H](C(=O)N1CC[C@@H]2[C@H]1[C@@H](C(=O)NCc1ccccc1)CN2C(C)=O)C(C)(C)C [Example 38, 1-Acetyl-4-[3,3-dimethyl-2-(2-methylamino-propionylamino)-butyryl]-octahydro-pyrrolo[3,2-b]pyrrole-3-carboxylic acid benzylamide] | < 100 nM | < 100 nM | < 100 nM
3 | CN[C@@H](C)C(=O)N[C@H](C(=O)N1CC[C@@H]2[C@H]1[C@@H](C(=O)NCc1ccccc1)CN2S(C)(=O)=O)C1CCCCC1 [Example 2, 4-[2-Cyclohexyl-2-(2-methylamino-propionylamino)-acetyl]-1-methanesulfonyl-octahydro-pyrrolo[3,2-b]pyrrole-3-carboxylic acid benzylamide] | < 100 nM | < 100 nM | < 100 nM
4 | CN[C@@H](C)C(=O)N[C@H](C(=O)N1CC[C@@H]2[C@H]1[C@@H](C(=O)N[C@@H](C)c1ccccc1)CN2S(C)(=O)=O)C1CCCCC1 [Example 11, 4-[2-Cyclohexyl-2-(2-methylamino-propionylamino)-acetyl]-1-methanesulfonyl-octahydro-pyrrolo[3,2-b]pyrrole-3-carboxylic acid (1-phenyl-ethyl)-amide] | < 100 nM | < 100 nM | 100 to 1000 nM

Continued, in another order:

Row | Kd (XIAP BIR-3) | Kd (cIAP-1 BIR-3) | SMILES | CC50 (SK-OV-3 cells)
5 | < 100 nM | < 100 nM | CN[C@@H](C)C(=O)N[C@H](C(=O)N1CC[C@@H]2[C@H]1[C@@H](C(=O)N[C@@H]1CCCc3ccccc31)CN2C(=O)OC)C1CCCCC1 [Example 39, 4-[2-Cyclohexyl-2-(2-methylamino-propionylamino)-acetyl]-3-(1,2,3,4-tetrahydro-naphthalen-1-ylcarbamoyl)-hexahydro-pyrrolo[3,2-b]pyrrole-1-carboxylic acid methyl ester] | < 100 nM
6 | 100 to 1000 nM | 100 to 1000 nM | CN[C@@H](C)C(=O)N[C@H](C(=O)N1CC[C@@H]2[C@H]1[C@@H](C(=O)N1CCc3ccccc31)CN2S(C)(=O)=O)C1CCCCC1 [Example 15, N-{1-Cyclohexyl-2-[6-(2,3-dihydro-indole-1-carbonyl)-4-methanesulfonyl-hexahydro-pyrrolo[3,2-b]pyrrol-1-yl]-2-oxo-ethyl}-2-methylamino-propionamide] | < 100 nM
7 | < 100 nM | < 100 nM | CNC(=O)N1C[C@H](C(=O)Nc2cccc3ccccc23)[C@@H]2[C@H]1CCN2C(=O)[C@@H](NC(=O)[C@H](C)NC)C(C)(C)C [Example 42, 4-[3,3-Dimethyl-2-(2-methylamino-propionylamino)-butyryl]-hexahydro-pyrrolo[3,2-b]pyrrole-1,3-dicarboxylic acid 1-methylamide 3-naphthalen-1-ylamide] | < 100 nM
